Results from patent US9464106B2, “Oligonucleotides useful for detecting and analyzing nucleic acids of interest” (Exiqon A/S, priority 2002, dated 2016).
l = locked nucleic acid (LNA); [5mC] = 5-methylcytosine; d = 2'-deoxy (DNA)

System: yeast HSP78 (YDR258C) sequence
Test: Duplex melting temperatures of HSP78 25-mer capture probes (UV spectrophotometer)
Settings: 25-mer capture probe duplex with complementary target; design PM = perfectly matched, MM = single mismatch; DNA, LNA_T (T) or LNA_TC (TC) substituted

Compared with “12746 (DNA TTTTTCGGCCAATCGATCTTGAATT; sugars from the 5' end ldldllddlldddddddldldddld, [5mC] at 6, 9, 10, 18, backbone not given here) [compound 12746]”, “12747 (DNA CACTCTAACAGTATCGCCGTTTCTA; sugars from the 5' end ldldldddldddddddlddldllld, [5mC] at 1, 3, 5, 9, 17, 23, backbone not given here) [compound 12747]” is higher in “Average duplex melting temp.” value: 71 °C for the first, 75.2 °C for the second.

First: 12748 (DNA TCAATGGCCTTGGACCATATAATTG; sugars from the 5' end llddlddldllddddldldlddlld, [5mC] at 2, 8, 16, backbone not given here) [compound 12748]
Second: 12749 (DNA AAAACGACAGCAAAAGGCTTTCTTC; sugars from the 5' end ddddlddlddlddddddlldlldld, [5mC] at 5, 8, 11, 18, 22, backbone not given here) [compound 12749]
The “Average duplex melting temp.” value of the first is higher: 74.8 °C for the first, 72 °C for the second.

Going from “12750 (DNA ATTGACCTCAAATCTTTCTTGGATA; sugars from the 5' end dllddlllldddddlldllldddld, [5mC] at 6, 7, 9, 18, backbone not given here) [compound 12750]” to “12751 (DNA CCCAACTTTGTGACGTTTAATAAAA; sugars from the 5' end llldddllddlddddlllddldddd, [5mC] at 1, 2, 3, backbone not given here) [compound 12751]”, the “Average duplex melting temp.” value falls from 72.2 °C to 67.6 °C.

Going from “12752 (DNA ACCATCATCACCCAACTTTGTGTCG; DNA, backbone not given here; further chemistry not fully specified) [compound 12752]” to “12753 (DNA CAATGATCGTGTTACGGAAATCAAC; DNA, backbone not given here; further chemistry not fully specified) [compound 12753]”, the “Average duplex melting temp.” value falls from 67.5 °C to 64.2 °C.

Compared with “12754 (DNA TGGCCTAGGGAATCGGTCAGCTTAC; DNA, backbone not given here; further chemistry not fully specified) [compound 12754]”, “12755 (DNA TTGGAAACATCGGGGTGCGCTTTTT; DNA, backbone not given here; further chemistry not fully specified) [compound 12755]” is higher in “Average duplex melting temp.” value: 70.1 °C for the first, 70.8 °C for the second.

Compared with “12756 (DNA GAAACATCGGGGTGCGCTTTTTCAA; DNA, backbone not given here; further chemistry not fully specified) [compound 12756]”, “12757 (DNA GACAGCCTCAGTTAATTGGCCACCA; DNA, backbone not given here; further chemistry not fully specified) [compound 12757]” is higher in “Average duplex melting temp.” value: 68.7 °C for the first, 70.2 °C for the second.

Going from “12758 (DNA CCGATTAAACGAGAGACAGTATGCT; DNA, backbone not given here; further chemistry not fully specified) [compound 12758]” to “12759 (DNA ATCAAATAGGAATTCAGCTAAAGCC; DNA, backbone not given here; further chemistry not fully specified) [compound 12759]”, the “Average duplex melting temp.” value falls from 65.4 °C to 61.5 °C.

Going from “12760 (DNA GACCTAAGAACATAAAGCTGGCAAT; DNA, backbone not given here; further chemistry not fully specified) [compound 12760]” to “12761 (DNA AAATAGCAGCAATGGCCTCGTCTTG; DNA, backbone not given here; further chemistry not fully specified) [compound 12761]”, the “Average duplex melting temp.” value rises from 63.5 °C to 69.2 °C.

Going from “12762 (DNA ATAGCAGCAATGGCCTCGTCTTGGC; DNA, backbone not given here; further chemistry not fully specified) [compound 12762]” to “12763 (DNA GCAATGGCCTCGTCTTGGCCAACGA; DNA, backbone not given here; further chemistry not fully specified) [compound 12763]”, the “Average duplex melting temp.” value rises from 72.7 °C to 72.8 °C.

Going from “12764 (DNA GATGAACTCAGGTGGATAGGATCTT; DNA, backbone not given here; further chemistry not fully specified) [compound 12764]” to “12765 (DNA TCAGTTAGCCAATCCTTCGCTTCAT; DNA, backbone not given here; further chemistry not fully specified) [compound 12765]”, the “Average duplex melting temp.” value rises from 64 °C to 66.1 °C.

First: 12766 (DNA GTTGCCATGGAGTTCAAAATCTGTC; DNA, backbone not given here) [compound 12766]
Second: 12767 (DNA AGACGTACAGCATCAGAAATAGCAG; DNA, backbone not given here; further chemistry not fully specified) [compound 12767]
The “Average duplex melting temp.” value of the first is lower: 65.8 °C for the first, 66.6 °C for the second.

Going from “12768 (DNA TTTGGTAGCACGACAAGCTTAGTAT; DNA, backbone not given here) [compound 12768]” to “12769 (DNA ATAAAGCTGGCAATAGGTCTCTTTT; DNA, backbone not given here; further chemistry not fully specified) [compound 12769]”, the “Average duplex melting temp.” value falls from 65.7 °C to 63.6 °C.

First: 12770 (DNA TTTTTCGGCCAAACGATCTTGAATT; DNA, backbone not given here; further chemistry not fully specified) [compound 12770]
Second: 12771 (DNA CACTCTAACAGTTTCGCCGTTTCTA; DNA, backbone not given here) [compound 12771]
The “Average duplex melting temp.” value of the first is lower: 65 °C for the first, 66.3 °C for the second.

Going from “12772 (DNA TCAATGGCCTTGCACCATATAATTG; DNA, backbone not given here) [compound 12772]” to “12773 (DNA AAAACGACAGCATAAGGCTTTCTTC; DNA, backbone not given here; further chemistry not fully specified) [compound 12773]”, the “Average duplex melting temp.” value rises from 64 °C to 64.5 °C.

Going from “12774 (DNA ATTGACCTCAAAACTTTCTTGGATA; DNA, backbone not given here; further chemistry not fully specified) [compound 12774]” to “12775 (DNA CCCAACTTTGTGTCGTTTAATAAAA; DNA, backbone not given here; further chemistry not fully specified) [compound 12775]”, the “Average duplex melting temp.” value falls from 61.8 °C to 61 °C.

First: 12776 (DNA ACCATCATCACCCAACTTTGTGTCG; DNA at ACG, LNA at T, backbone not given here; further chemistry not fully specified) [compound 12776]
Second: 12777 (DNA CAATGATCGTGTTACGGAAATCAAC; sugars from the 5' end dddlddlddlddldddddddldddd, backbone not given here; further chemistry not fully specified) [compound 12777]
The “Average duplex melting temp.” value of the first is higher: 79.2 °C for the first, 72.2 °C for the second.

Going from “12778 (DNA TGGCCTAGGGAATCGGTCAGCTTAC; DNA at ACG, LNA at T, backbone not given here; further chemistry not fully specified) [compound 12778]” to “12779 (DNA TTGGAAACATCGGGGTGCGCTTTTT; sugars from the 5' end lldddddddldddddlddddlllld, backbone not given here; further chemistry not fully specified) [compound 12779]”, the “Average duplex melting temp.” value falls from 76.9 °C to 76.7 °C.

Going from “12780 (DNA GAAACATCGGGGTGCGCTTTTTCAA; DNA at ACG, LNA at T, backbone not given here; further chemistry not fully specified) [compound 12780]” to “12781 (DNA GACAGCCTCAGTTAATTGGCCACCA; sugars from the 5' end dddddddlddddlddlldddddddd, backbone not given here; further chemistry not fully specified) [compound 12781]”, the “Average duplex melting temp.” value falls from 78 °C to 75.4 °C.

Going from “12782 (DNA CCGATTAAACGAGAGACAGTATGCT; sugars from the 5' end ddddlldddddddddddddldlddd, backbone not given here; further chemistry not fully specified) [compound 12782]” to “12783 (DNA ATCAAATAGGAATTCAGCTAAAGCC; DNA at ACG, LNA at T, backbone not given here; further chemistry not fully specified) [compound 12783]”, the “Average duplex melting temp.” value falls from 72.2 °C to 66.3 °C.

First: 12784 (DNA GACCTAAGAACATAAAGCTGGCAAT; sugars from the 5' end ddddldddddddldddddldddddd, backbone not given here; further chemistry not fully specified) [compound 12784]
Second: 12785 (DNA AAATAGCAGCAATGGCCTCGTCTTG; DNA at ACG, LNA at T, backbone not given here; further chemistry not fully specified) [compound 12785]
The “Average duplex melting temp.” value of the first is lower: 67.5 °C for the first, 77.2 °C for the second.

Going from “12786 (DNA ATAGCAGCAATGGCCTCGTCTTGGC; DNA at ACG, LNA at T, backbone not given here; further chemistry not fully specified) [compound 12786]” to “12787 (DNA GCAATGGCCTCGTCTTGGCCAACGA; DNA at ACG, LNA at T, backbone not given here; further chemistry not fully specified) [compound 12787]”, the “Average duplex melting temp.” value rises from 80.1 °C to 80.8 °C.
